From patent publication US20260041683A1, “Compounds with Anti-Acinetobacter Baumannii Activity” (University of Kentucky Research Foundation, priority 2022, published 2026)
Values after ≈ are worked out from the molar mass of the structure shown. Read-outs that look alike come from different tables or passages of the source.

What was measured:
B. anthracis Sterne F32 = experiment: microbe, parasite or virus in culture; assay type: cell-based; details: Bacillus anthracis
M. smegmatis = experiment: MIC determination; assay type: cell-based, Mycobacterium smegmatis; details: Mycolicibacterium smegmatis; Table 4
K. pneumoniae ATCC 27736 = experiment: MIC determination; assay type: cell-based; details: Klebsiella pneumoniae, ATCC27736
[1] = tested on: K. pneumoniae ATCC BAA 1705; experiment: MIC determination; assay type: cell-based; details: Klebsiella pneumoniae, BAA1705; Table 3
E. coli ATCC BAA 2469 = experiment: MIC determination; assay type: cell-based; details: Escherichia coli, BAA2469; Table 3
E. cloacae ATCC 13047 = experiment: MIC determination; assay type: cell-based; details: Enterobacter cloacae, ATCC13047
S. enterica ATCC 14028 = experiment: MIC determination; assay type: cell-based; details: Salmonella enterica, ATCC14028
S. aureus ATCC 25923 = experiment: MIC determination; assay type: cell-based; details: Staphylococcus aureus, ATCC25923
[2] = tested on: Ab ATCC BAA1605 (strain J, multidrug-resistant); experiment: MIC determination; assay type: cell-based; details: Acinetobacter baumannii
Outline: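 Broth double-dilution MIC in Mueller-Hinton broth, 96-well plates, at least in duplicate. Inoculum: colonies grown overnight at 37 °C on MH plates, suspended to OD600 ~0.5 and diluted 1:1000 into serially doubly diluted compound.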

[3] = tested on: S. epidermidis ATCC 12228; experiment: MIC determination; assay type: cell-based; details: Staphylococcus epidermidis, ATCC12228
[4] = tested on: all 41 multidrug-resistant Ab strains (#273-313) from the CDC and FDA AR Bank; experiment: MIC determination, panel statements; assay type: cell-based; details: Acinetobacter baumannii; Table 2 note; almost all of the 41 strains; read-out: MIC values against almost all strains
Procedure: All bacterial strains listed above were stored at −80° C. All strains were streaked on Mueller-Hinton (MH) plates and allowed to grow at 37° C. overnight. Enough colonies were scraped from the plate and suspended in MH broth with vortexing to reach an attenuance at 600 nm (OD600) of ˜0.5. The resulting culture was diluted 1:1000 and added to the prepared serially doubly diluted compound solutions in 96-well plates. For M. smegmatis, a 1:100 dilution of the bacteria was done in MH. All MIC values were determined using 96-well plates with low evaporation seals at least in duplicate. For each row, one well was reserved for sterile control (which consisted of 200 μL of MH medium) and another well was reserved for growth control (which consisted of 100 μL of MH medium seeded with 100 μL of bacterial culture).
Then all 46 compounds were tested against a broad panel of all 41 Ab strains from the CDC and FDA Antibiotic Resistance (AR) Isolate Bank (Table 2; data shown for 2 representative compounds), which were all highly multidrug-resistant strains, including those resistant to colistin. […] The activity of the monohydrazides was not dependent on the extent (number of resistance mutations) or severity (antibiotic MIC) of resistance. All conclusions made from Table 1 remained valid for all compounds against these 41 additional Ab strains. […]

P. aeruginosa ATCC 27853 = experiment: MIC determination; assay type: cell-based; details: Pseudomonas aeruginosa, ATCC27853
Y. pestis CO92 = experiment: microbe, parasite or virus in culture; assay type: cell-based; details: Yersinia pestis, CO92, read-out: MIC Y. pestis CO92
Ab ATCC 19606 (strain I) = experiment: MIC determination (double dilution, Mueller-Hinton broth); assay type: cell-based, Acinetobacter baumannii; details: Acinetobacter baumannii, ATCC19606
Ab ATCC 19606 [5] = experiment: Time-kill curves
Ab ATCC 19606 [6] = experiment: Development of resistance, 15-passage MIC assay; assay type: cell-based, Acinetobacter baumannii; details: Acinetobacter baumannii, ATCC19606, read-out: MIC before passaging
E. coli MC1061 = experiment: MIC determination; assay type: cell-based; details: Escherichia coli; Table 5; Mueller-Hinton medium; D = E. coli MC1061; read-out: MIC strain D
[7] = tested on: all 43 strains of A. baumannii (41 CDC strains and 2 ATCC strains); experiment: MIC value statistics for all A. baumannii strains; assay type: cell-based, Acinetobacter baumannii; details: of 43 A. baumannii strains
Outline: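 Broth microdilution in MH broth against CDC AR Isolate Bank and ATCC strains. Inoculum from overnight MH plates (37 °C), suspended to OD600 ~0.5, then diluted 1:1000 into serial twofold compound dilutions. Sterile and growth controls included per row.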

Gram-negative bacteria = experiment: MIC determination, panel statement; assay type: cell-based; details: moderate activity
[8] = tested on: murine red blood cells (mRBCs); experiment: Hemolysis assay; assay type: cell-based; details: 32 g/mL as printed, 37° C.
Procedure: The cells were then washed using PBS (3×) by spinning at 1,000 rpm for 7 min. After washing, mRBCs were counted using a hemacytometer and diluted in PBS to 5×10^7 cells/mL. All the tested compounds were diluted (32 μg/mL and 8 μg/mL) in PBS in Eppendorf tubes (500 μL volume) and 100 μL were added to each of the columns of the 96-well plate except for column 1. A positive control (1% Triton-X®, TX), a negative control (DMSO), and wells with no mRBCs to account for any background absorbance were used in the 96-well plate. After the addition of the compounds to the plate, 100 μL of mRBCs were added to each well and plates were incubated at 37° C. for 30 min. The plates were then spun at 1,000 rpm for 10 min till the mRBCs settle at the bottom of the plates. 100 μL of supernatant was then transferred to a new 96-well plate and the absorbance at 500 nm was read using a spectrophotometer (SpectraMax M5). Percent hemolysis was calculated using the following equation after subtraction of the background absorbance.
To test the safety of the compounds, they were for exampled for hemolytic effect on murine red blood cells (FIG. 7).

[9] = tested on: human embryonic kidney cells (HEK-293); experiment: Mammalian cytotoxicity assay (resazurin); details: HEK-293, 32 μg/mL (printed 32 g/mL for 3e), 24 h
[10] = STERNEF32, read-out: MIC B. anthracis Sterne F32
[11] = Table 3, read-out: MIC K. pneumoniae ATCC 27736
[12] = Table 4, read-out: MIC E. cloacae ATCC 13047
[13] = Table 4, read-out: MIC S. enterica ATCC 14028
[14] = Table 4, read-out: MIC S. Aureus ATCC 25923
[15] = Table 1, multidrug-resistant strain, read-out: MIC Ab ATCC BAA 1605
[16] = Table 3, positive control strain, read-out: MIC A. Baumannii ATCC BAA 1605
[17] = Table 4, read-out: MIC S. epidermidis ATCC 12228
[18] = Table 3, read-out: MIC P. aeruginosa ATCC 27853
[19] = Table 1, control strain, read-out: MIC Ab ATCC 19606
[20] = STERNEF32, read-out: MIC strain A
[21] = Table 5, Mueller-Hinton medium, H = S. enterica ATCC 14028, read-out: MIC strain H
[22] = Table 5, Mueller-Hinton medium, B = S. aureus ATCC 25923, read-out: MIC strain B
[23] = Table 5, Mueller-Hinton medium, J = A. baumannii BAA1605, read-out: MIC strain J
[24] = Table 5, Mueller-Hinton medium, C = S. epidermidis ATCC 12228, read-out: MIC strain C
[25] = Table 5, Mueller-Hinton medium, G = P. aeruginosa ATCC 27853, read-out: MIC strain G
[26] = Table 5, Mueller-Hinton medium, I = A. baumannii ATCC 19606, read-out: MIC strain I
[27] = Table 5, Mueller-Hinton medium, F = K. pneumoniae ATCC 27736, read-out: MIC strain F
[28] = Table 5, Mueller-Hinton medium, E = E. cloacae ATCC 13047, read-out: MIC strain E

SMILES: NC[C@H]1O[C@H](O[C@H]2[C@H](O)[C@@H](O[C@H]3O[C@H](CO)[C@@H](O)[C@H](N)[C@H]3O)[C@H](N)C[C@@H]2N)[C@H](O)[C@@H](O)[C@@H]1O [KAN, kanamycin, reference compound]
- MIC (B. anthracis Sterne F32; [10]): > 160 µg/mL
- MIC (M. smegmatis): ≤ 0.03 µg/mL
- MIC (K. pneumoniae ATCC 27736; [11]): 4 µg/mL (≈ 8.26 µM)
- MIC [1]: > 128 µg/mL
- MIC (E. coli ATCC BAA 2469): > 128 µg/mL
- MIC (E. cloacae ATCC 13047; [12]): 1.25 µg/mL (≈ 2.58 µM)
- MIC (S. enterica ATCC 14028; [13]): 2.5 µg/mL (≈ 5.16 µM)
- MIC (S. aureus ATCC 25923; [14]): 0.63 µg/mL (≈ 1.3 µM)
- MIC [2, 15]: 10 µg/mL (≈ 20.6 µM)
- MIC [2, 16]: 32 µg/mL (≈ 66 µM)
- MIC [3, 17]: 0.63 µg/mL (≈ 1.3 µM)
- MIC [4]: > 10 µg/mL
- MIC (P. aeruginosa ATCC 27853; [18]): > 128 µg/mL
- MIC (Y. pestis CO92): 2.5 µg/mL (≈ 5.16 µM)
- MIC (Ab ATCC 19606 (strain I); [19]): 5 µg/mL (≈ 10.3 µM)

SMILES: O=C(O)c1cn(C2CC2)c2cc(N3CCNCC3)c(F)cc2c1=O [CIP, ciprofloxacin, reference compound]
- MIC (B. anthracis Sterne F32; [20]): 1 µg/mL (≈ 3.02 µM)
- bacteriostatic or bactericidal (time-kill) (Ab ATCC 19606 [5]; 1×MIC and 4×MIC, up to 24 h): bactericidal
- reduction of colony count (Ab ATCC 19606 [5]; time-kill): 4100 fold
- MIC (S. enterica ATCC 14028; [21]): ≤ 0.0625 µg/mL
- MIC (Ab ATCC 19606 [6]): 2 µg/mL (≈ 6.04 µM)
- MIC (S. aureus ATCC 25923; [22]): ≤ 0.0625 µg/mL
- MIC [2, 23]: 2 µg/mL (≈ 6.04 µM)
- MIC [3, 24]: ≤ 0.0625 µg/mL
- MIC (P. aeruginosa ATCC 27853; [25]): 0.25 µg/mL (≈ 0.754 µM)
- MIC (E. coli MC1061): ≤ 0.0625 µg/mL
- MIC (Ab ATCC 19606 (strain I); [26]): 1 µg/mL (≈ 3.02 µM)

SMILES: O=C(NNc1ccc(Cl)cc1)c1ccccn1 [Compound 2e]
- MIC (B. anthracis Sterne F32; [10]): > 16 µg/mL
- MIC (B. anthracis Sterne F32; [20]): > 64 µg/mL
- number of compound/strain combinations with MIC value 0.25 μg/mL [7]: 16
- number of compound/strain combinations with MIC value 0.5 μg/mL [7]: 21
- number of compound/strain combinations with MIC value 1 μg/mL [7]: 1
- number of compound/strain combinations with MIC value ≤0.125 μg/mL [7]: 5
- MIC (M. smegmatis): 4 µg/mL (≈ 16.1 µM)
- MIC (K. pneumoniae ATCC 27736; [27]): 64 µg/mL (≈ 258 µM)
- MIC (E. cloacae ATCC 13047; [12]): > 16 µg/mL
- MIC (E. cloacae ATCC 13047; [28]): 64 µg/mL (≈ 258 µM)
- MIC (S. enterica ATCC 14028; [13]): > 16 µg/mL
- MIC (S. enterica ATCC 14028; [21]): 64 µg/mL (≈ 258 µM)
- MIC (S. aureus ATCC 25923; [14]): > 16 µg/mL
- MIC (S. aureus ATCC 25923; [22]): > 64 µg/mL
- MIC [2, 15]: 0.25 µg/mL (≈ 1.01 µM)
- MIC [2, 23]: 0.25 µg/mL (≈ 1.01 µM)
- MIC [3, 17]: > 16 µg/mL
- MIC [3, 24]: > 64 µg/mL
- MIC (P. aeruginosa ATCC 27853; [25]): > 64 µg/mL
- MIC (Y. pestis CO92): 16 µg/mL (≈ 64.6 µM)
- MIC (E. coli MC1061): 16 µg/mL (≈ 64.6 µM)
- MIC (Ab ATCC 19606 (strain I); [19]): 0.25 µg/mL (≈ 1.01 µM)
- MIC (Ab ATCC 19606 (strain I); [26]): 0.25 µg/mL (≈ 1.01 µM)

SMILES: O=C(NNc1cccc(Cl)c1)c1ccccn1 [Compound 2b]
- MIC (B. anthracis Sterne F32; [20]): > 64 µg/mL
- number of compound/strain combinations with MIC value 0.25 μg/mL [7]: 13
- number of compound/strain combinations with MIC value 0.5 μg/mL [7]: 13
- number of compound/strain combinations with MIC value 1 μg/mL [7]: 12
- number of compound/strain combinations with MIC value 2 μg/mL [7]: 3
- number of compound/strain combinations with MIC value ≤0.125 μg/mL [7]: 2
- MIC (Gram-negative bacteria): 4 to 16 µg/mL (≈ 16.1 to 64.6 µM)
- MIC (K. pneumoniae ATCC 27736; [11]): 8 µg/mL (≈ 32.3 µM)
- MIC (K. pneumoniae ATCC 27736; [27]): 16 µg/mL (≈ 64.6 µM)
- MIC [1]: 16 µg/mL (≈ 64.6 µM)
- MIC (E. coli ATCC BAA 2469): 8 µg/mL (≈ 32.3 µM)
- MIC (E. cloacae ATCC 13047; [28]): 4 µg/mL (≈ 16.1 µM)
- MIC (S. enterica ATCC 14028; [21]): 16 µg/mL (≈ 64.6 µM)
- MIC (S. aureus ATCC 25923; [22]): > 64 µg/mL
- MIC [2, 15]: < 0.5 µg/mL
- MIC [2, 16]: ≤ 0.5 µg/mL
- MIC [2, 23]: 1 µg/mL (≈ 4.04 µM)
- MIC [3, 24]: > 64 µg/mL
- MIC (P. aeruginosa ATCC 27853; [18]): > 128 µg/mL
- MIC (P. aeruginosa ATCC 27853; [25]): > 64 µg/mL
- MIC (E. coli MC1061): 4 µg/mL (≈ 16.1 µM)
- MIC (Ab ATCC 19606 (strain I); [19]): 2 µg/mL (≈ 8.07 µM)
- MIC (Ab ATCC 19606 (strain I); [26]): 2 µg/mL (≈ 8.07 µM)

SMILES: O=C(NNc1cccc(F)c1)c1ccc2ccccc2n1 [Compound 12a]
- number of compound/strain combinations with MIC value 0.25 μg/mL [7]: 8
- number of compound/strain combinations with MIC value 0.5 μg/mL [7]: 21
- number of compound/strain combinations with MIC value 1 μg/mL [7]: 14
- hemolysis [8]: 20%
- inhibition of growth [9]: 40%
